{
  "source": "patent US6737245B1",
  "about": "“Luciferase expression cassettes and methods of use” (priority 1999, dated 2004)",
  "type": "in vivo",
  "details": "four mice, IP at 0, 2, 4 and 6 hr, 500 μl of 0.1% and 0.01%, observed over 24 hours",
  "procedure": "Four mice were injected IP at 0, 2, 4 and 6 hr with 500 μl volumes of n-decyl aldehyde at concentrations of 0.1% and 0.01%. Aldehyde solutions were prepared as follows: 100 μl of aldehyde was diluted in 900 μl of ethanol. 10 μl of this 10% solution was then diluted into 990 μl of sterile phosphate buffered saline (PBS) pH 7.4 to give a 0.1% final volume of aldehyde solution. The animals were observed over a 24-hour period.",
  "data": [
    {"compound": "CCCCCCCCCC=O", "note": "[n-decyl aldehyde]", "values": [
      {"measurement": "symptoms of illness or abnormal behavior", "result": "None of the mice showed any apparent symptoms of illness or abnormal behavior"}
    ]}
  ]
}
